Assay results published in patent publication US20240189287A1, “PERIPHERALLY RESTRICTED CB1 RECEPTOR BLOCKERS AND USES THEREOF” (BIONANOSIM (BNS) LTD, priority 2021, published 2024).
Where two headings read alike, the source gives them in different places.

Columns and labels:
[1] = system: Salmonella typhimurium (TA98, TA100)
CB1 receptor [2] = target: T1, CB1 receptor (Mus musculus (Mouse), UniProt P47746); assay: CB1 receptor radioligand binding assay, [3H]CP-55,940 displacement, mouse brain membranes; details: mouse (m) CB1 receptor; read-out: CB1R Ki (nM) (m)
Method: (§1) Radioligand binding assays: Binding affinity was determined by a radioligand binding assay. The different BB8-conjugates binding to CB1 and CB2 receptors was assessed in competition displacement assays using [^3H]CP-55.940 as the radioligand and crude membranes from mouse brain for CB1 receptor and human kidney cells for CB2 receptor.
CB1 receptor binding assay: Mouse brain membranes were used as the source material for CB1 receptors. The displacement of specifically bound tritiated CP-55.940 from these membranes using a standard filtration assay was used to determine the Ki values for the test compounds. Briefly. 20 μg of protein was incubated for 1 h at 30° C. in the presence of 0.5 nM [^3H]CP-55,940 and various concentrations (10^−5M-10^−11M) of test compound/control, final volume of 1 mL. The incubation was terminated by rapid filtration and washing, and the amount of specifically bound [^3H]CP-55,940 was determined. Briefly, membranes with bound [^3H]CP-55,940 were separated and washed from free ligand by vacuum filtration, adsorbing the membrane onto a Whatman glass microfiber filter paper ([…], Cat #1821271). Finally, the Whatman filter paper with adsorbed membranes was cut and placed in scintillation liquid (Ultima Gold) for 1 h at 25° C. followed by a β counter reading of bound [^3H]CP-55,940 radioligand. All data were in triplicates with Ki values determined using GraphPad Prism 7.02 analysis software. […] In some cases, membranes from human source were used to determine CB1 receptor binding affinity.

CB1 receptor [3] = target: T1, CB1 receptor; assay: [35S]GTPγS binding assay for CB1 receptor, mouse brain membranes; assay type: biochemical; details: nature of binding: agonist/antagonist/inverse agonist
Method: For CB1 receptor-mouse brains were dissected and P2 membranes prepared and resuspended at ˜2 μg protein/μL in 1 ml assay buffer (50 mM Tris HCl, 9 mM MgCl2, 0.2 mM EDTA, 150 mM NaCl; pH 7.4). Ligand-stimulated [^35S]GTPγS binding was assayed as described previously (Tam et al., JCI 2010). Briefly, membranes (10 μg protein) were incubated in assay buffer containing 100 μM GDP, 0.05 nM [^35S]GTPγS, test compounds at various concentrations (CP55940/Rimonabant as controls and test compounds for BB8 conjugates), and 1.4 mg/mL fatty acid-free BSA in siliconized glass tubes. Membranes with bound ligand ([^35S]GTPγS) were separated from free ligand by vacuum filtration and were analyzed using β counter as described above. Non-specific binding was determined using 10 μM GTPS (cold GTP). Basal binding was assayed in the absence of the tested compound and in the presence of GDP.

CB2 receptor = CB2 receptor (Homo sapiens (Human), UniProt P34972); assay: CB2 receptor radioligand binding assay, [3H]CP-55,940 displacement, human kidney membranes; details: for Ki: read-out: hCB2R Ki
Method: as §1
CB2 receptor binding assay: Human kidney membranes were used as the source material for CB2 receptors. The displacement of specifically bound tritiated CP-55,940 from these membranes using a standard filtration assay was used to determine the Ki values for the test compounds. Briefly, 1.25 μg of protein was incubated for 1.5 h at 30° C. in the presence of 0.5 nM [^3H]CP-55,940 and various concentrations (10^−5M-10^−11M) of test compound/control, final volume of 1 mL. The incubation was terminated by rapid filtration and washing, and the amount of specifically bound [^3H]CP-55,940 was determined. Briefly, membranes with bound [^3H]CP-55,940 were separated and washed from free ligand by vacuum filtration, adsorbing the membrane onto a Whatman glass microfiber filter paper ([…], Cat #1821271). Finally, the Whatman filter paper with adsorbed membranes was cut and placed in scintillation liquid (Ultima Gold) for 1 h at 25° C. followed by a β counter reading of bound [^3H]CP-55,940 radioligand. All data were in triplicates with Ki values determined using GraphPad Prism 7.02 analysis software.

P-gp (MDR1, ABCB1) = assay: MDR1-MDCK II cell permeation assay (bi-directional permeability, P-gp efflux); assay type: in vitro ADME; details: dog; for Papp at 2.5 h, 2 μM: A to B
Method: (§2) Test and reference compounds were diluted with transport buffer (HBSS with 10 mM Hepes, pH 7.4) from stock solution to a concentration of 2 μM (DMSO<1%) and applied to the apical or basolateral side of the cell monolayer. Permeation of the test compounds from A to B direction or B to A direction was determined in duplicate with/without P-gp inhibitor (GF120918, 10 μM). […] The plate was incubated for 2.5 hours in CO2 incubator at 37±1° C., with 5% CO2 at saturated humidity without shaking. In addition, the efflux ratio of each compound was also determined. Test and reference compounds were quantified by LC-MS/MS analysis based on the peak area ratio of analyte/IS.
(§3) The in vitro bi-directional permeability across MDR1-MDCKII cells including P-glycoprotein (Pgp, ABCB1) efflux in the presence and absence of a P-gp inhibitor is an indicator as to the tendency of an orally administered compound to penetrate the brain.

MDR1-MDCKII cells = assay: as above; assay type: in vitro ADME
Method: as §2, §3

HepG2 Cells = assay: Cell Viability Assay in HepG2 Cells at 72 h; assay type: cell-based, human; details: HepG2, 72 h
Method: The liver plays a central role in transforming and clearing chemicals, and therefore is susceptible to toxicity of these agents. BNS808, BNS822 and other selected compounds were tested in the HepG2 assay using […] to evaluate cytotoxicity.

[4] = MDCK-MDR1, pH 7.4, with GF120918, 10 μM, efflux ratio in the presence of P-gp inhibitor GF120918, read-out: MDR1 B:A/A:B (+P-gp inhibitor)
[5] = MDCK-MDR1, pH 7.4, efflux ratio, without P-gp inhibitor, read-out: MDR1 B:A/A:B

T1 sequence (P47746 whole entry): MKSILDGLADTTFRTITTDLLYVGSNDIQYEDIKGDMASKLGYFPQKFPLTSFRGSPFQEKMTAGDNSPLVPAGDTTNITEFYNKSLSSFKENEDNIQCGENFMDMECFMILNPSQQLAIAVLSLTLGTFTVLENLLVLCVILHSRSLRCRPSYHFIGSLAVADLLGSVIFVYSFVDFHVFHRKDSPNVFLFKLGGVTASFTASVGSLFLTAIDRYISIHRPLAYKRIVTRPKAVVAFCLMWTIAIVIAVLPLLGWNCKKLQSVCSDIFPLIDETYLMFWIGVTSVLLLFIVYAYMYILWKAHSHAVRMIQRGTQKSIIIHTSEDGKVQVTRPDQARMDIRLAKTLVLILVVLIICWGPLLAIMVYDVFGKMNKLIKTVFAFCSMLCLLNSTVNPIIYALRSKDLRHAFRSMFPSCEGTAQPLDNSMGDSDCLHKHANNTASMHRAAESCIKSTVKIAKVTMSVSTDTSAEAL
Chain of CB2 receptor (P34972 whole entry): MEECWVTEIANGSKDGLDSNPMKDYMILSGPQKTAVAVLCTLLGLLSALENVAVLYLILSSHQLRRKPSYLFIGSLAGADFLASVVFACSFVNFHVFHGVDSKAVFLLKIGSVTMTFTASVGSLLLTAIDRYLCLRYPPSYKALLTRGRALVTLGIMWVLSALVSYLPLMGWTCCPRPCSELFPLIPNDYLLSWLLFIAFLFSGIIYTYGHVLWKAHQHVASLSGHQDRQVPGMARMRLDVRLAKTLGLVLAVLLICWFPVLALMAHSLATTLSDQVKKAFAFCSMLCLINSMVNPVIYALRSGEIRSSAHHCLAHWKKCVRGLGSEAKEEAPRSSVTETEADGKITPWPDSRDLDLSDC

Row | SMILES | Ki (CB1 receptor [2]) [nM] | mCB1R GTPγ[^35S] (activity) (CB1 receptor [3]) | Ki (CB2 receptor) [nM] | further results
1 | Nc1ccc2cc3ccccc3cc2c1 [2-Aminoanthracene, reference compound] |  |  |  | AMES result (positive/negative) ([1]; TA98, S9 yes): positive; AMES result (positive/negative) ([1]; TA100, S9 yes): positive
2 | O=[N+]([O-])c1ccc2c(c1)Cc1ccccc1-2 [2-Nitroflurene, reference compound] |  |  |  | AMES result (positive/negative) ([1]; TA98, S9 no): positive
3 | O=C(NC1CCCOc2c1nn(-c1ccccc1Cl)c2-c1ccc(Cl)cc1)c1ccccn1 (stereo not drawn) [BNS810, N-[2-(2-chlorophenyl)-3-(4-chlorophenyl)-5,6,7,8-tetrahydrooxepino[3,2-c]pyrazol-8-yl]pyridine-2-carboxamide] | 64.5 | Antagonist | 988 | 
4 | O=C(NC1CCCOc2c1nn(-c1ccccc1Cl)c2-c1ccc(Cl)cc1)c1ccncn1 (stereo not drawn) [BNS811, N-[2-(2-chlorophenyl)-3-(4-chlorophenyl)-5,6,7,8-tetrahydrooxepino[3,2-c]pyrazol-8-yl]pyrimidine-4-carboxamide] | 65.6 | Antagonist | 963 | 
5 | O=C(NC1CCCOc2c1nn(-c1ccccc1Cl)c2-c1ccc(Cl)cc1)c1ccncc1 (stereo not drawn) [BNS812, N-[2-(2-chlorophenyl)-3-(4-chlorophenyl)-5,6,7,8-tetrahydrooxepino[3,2-c]pyrazol-8-yl]pyridine-4-carboxamide] | 16.3 | Antagonist | 1300 | 
6 | CNC(=O)NC1CCCOc2c1nn(-c1ccccc1Cl)c2-c1ccc(Cl)cc1 (stereo not drawn) [BNS813, 1-[2-(2-chlorophenyl)-3-(4-chlorophenyl)-5,6,7,8-tetrahydrooxepino[3,2-c]pyrazol-8-yl]-3-methyl-urea] | 1130 |  |  | 
7 | CS(=O)(=O)N1CCC(C(=O)NC2CCCOc3c2nn(-c2ccccc2Cl)c3-c2ccc(Cl)cc2)CC1 (stereo not drawn) [BNS815, N-[2-(2-chlorophenyl)-3-(4-chlorophenyl)-5,6,7,8-tetrahydrooxepino[3,2-c]pyrazol-8-yl]-1-methylsulfonyl-piperidine-4-carboxamide] | 18 | Antagonist | 6310 | efflux ratio at 2.5 h, 2 μM (P-gp (MDR1, ABCB1); [4]): 0.63; Papp at 2.5 h, 2 μM (P-gp (MDR1, ABCB1); MDCK-MDR1, pH 7.4): 10.1 ×10⁻⁶ cm/s; P-gp substrate (MDR1-MDCKII cells): P-gp substrates and Yes; Rank Papp (MDR1-MDCKII cells): High; IC50 (HepG2 Cells; read-out: Absolute IC50): 55.9 µM
8 | CCOC(=O)N1CCC(C(=O)NC2CCCOc3c2nn(-c2ccccc2Cl)c3-c2ccc(Cl)cc2)CC1 (stereo not drawn) [BNS816, Ethyl-4-((2-(2-chlorophenyl)-3-(4-chlorophenyl)-5,6,7,8-tetrahydro-2H-oxepino[3,2-c]pyrazol-8-yl)carbamoyl)piperidine-1-carboxylate] | 8.93 | Inverse Agonist | 1530 | efflux ratio at 2.5 h, 2 μM (P-gp (MDR1, ABCB1); [4]): 0.61; Papp at 2.5 h, 2 μM (P-gp (MDR1, ABCB1); MDCK-MDR1, pH 7.4): 6.99 ×10⁻⁶ cm/s; P-gp substrate (MDR1-MDCKII cells): No; Rank Papp (MDR1-MDCKII cells): High; MDR1 B:A/A:B (MDR1-MDCKII cells; efflux ratio, without P-gp inhibitor): 0.77
9 | O=C(NC1CCCOc2c1nn(-c1ccccc1Cl)c2-c1ccc(Cl)cc1)C1CCN(C(=O)c2cccnc2)CC1 (stereo not drawn) [BNS817, N-[2-(2-chlorophenyl)-3-(4-chlorophenyl)-5,6,7,8-tetrahydrooxepino[3,2-c]pyrazol-8-yl]-1-(pyridine-3-carbonyl)piperidine-4-carboxamide] | 290 | Inverse Agonist |  | efflux ratio at 2.5 h, 2 μM (P-gp (MDR1, ABCB1); [4]): 0.64; Papp at 2.5 h, 2 μM (P-gp (MDR1, ABCB1); MDCK-MDR1, pH 7.4): 8.09 ×10⁻⁶ cm/s; efflux ratio at 2.5 h, 2 μM (P-gp (MDR1, ABCB1); [5]): 1.92; P-gp substrate (MDR1-MDCKII cells): P-gp substrates and Yes; Rank Papp (MDR1-MDCKII cells): High; hCB2R Ki (nM) (CB2 receptor): No binding
10 | CNCC(=O)NC1CCCOc2c1nn(-c1ccccc1Cl)c2-c1ccc(Cl)cc1 (stereo not drawn) [BNS819, N-[2-(2-chlorophenyl)-3-(4-chlorophenyl)-5,6,7,8-tetrahydrooxepino[3,2-c]pyrazol-8-yl]-2-(methylamino)acetamide] | 922 |  |  | 
11 | O=C(NC1CCCOc2c1nn(-c1ccccc1Cl)c2-c1ccc(Cl)cc1)[C@H]1CCCN1 (stereo partly drawn) [BNS820, (2R)—N-[2-(2-chlorophenyl)-3-(4-chlorophenyl)-5,6,7,8-tetrahydrooxepino[3,2-c]pyrazol-8-yl]pyrrolidine-2-carboxamide] | 877 |  |  | 
12 | O=C(NC1CCCOc2c1nn(-c1ccccc1Cl)c2-c1ccc(Cl)cc1)[C@@H]1CCCN1 (stereo partly drawn) [BNS821, (2S)—N-[2-(2-chlorophenyl)-3-(4-chlorophenyl)-5,6,7,8-tetrahydrooxepino[3,2-c]pyrazol-8-yl]pyrrolidine-2-carboxamide] | 1400 |  |  | 
13 | CC(C)(Oc1ccc(C(=O)c2ccc(Cl)cc2)cc1)C(=O)NC1CCCOc2c1nn(-c1ccccc1Cl)c2-c1ccc(Cl)cc1 (stereo not drawn) [BNS823, 2-[4-(4-chlorobenzoyl)phenoxy]-N-[2-(2-chlorophenyl)-3-(4-chlorophenyl)-5,6,7,8-tetrahydrooxepino[3,2-c]pyrazol-8-yl]-2-methyl-propanamide] | 56.7 | Antagonist |  | efflux ratio at 2.5 h, 2 μM (P-gp (MDR1, ABCB1); [4]): > 30.9; Papp at 2.5 h, 2 μM (P-gp (MDR1, ABCB1); MDCK-MDR1, pH 7.4): < 0.003 ×10⁻⁶ cm/s; efflux ratio at 2.5 h, 2 μM (P-gp (MDR1, ABCB1); [5]): > 27.9; P-gp substrate (MDR1-MDCKII cells): No; Rank Papp (MDR1-MDCKII cells): Low; hCB2R Ki (nM) (CB2 receptor): No binding
14 | CS(=O)(=O)CC(=O)N1CCC(C(=O)NC2CCCOc3c2nn(-c2ccccc2Cl)c3-c2ccc(Cl)cc2)CC1 (stereo not drawn) [BNS824, N-[2-(2-chlorophenyl)-3-(4-chlorophenyl)-5,6,7,8-tetrahydrooxepino[3,2-c]pyrazol-8-yl]-1-(2-methylsulfonylacetyl)piperidine-4-carboxamide] | 456 |  |  | 
15 | O=C(NC1CCCOc2c1nn(-c1ccccc1Cl)c2-c1ccc(Cl)cc1)C1CCN(S(=O)(=O)c2ccc(Cl)cc2)CC1 (stereo not drawn) [BNS825, N-[2-(2-chlorophenyl)-3-(4-chlorophenyl)-5,6,7,8-tetrahydrooxepino[3,2-c]pyrazol-8-yl]-1-(4-chlorophenyl)sulfonyl-piperidine-4-carboxamide] | 1.6 | Antagonist | 127 | IC50 (HepG2 Cells; Homo sapiens, read-out: Relative IC50): > 100 µM
16 | CN[C@@H]1C[C@H]2O[C@@](C)([C@@H]1OC)n1c3ccccc3c3c4c(c5c6ccccc6n2c5c31)C(=O)NC4 [Staurosporine, reference compound] |  |  |  | IC50 (HepG2 Cells; read-out: Relative IC50): 0.06 µM
